From patent US20220334127A1, “IN VITRO METHOD FOR OBTAINING CLINICAL DATA IN PATIENTS SUFFERING FROM AN INFLAMMATORY DISEASE” (FUNDACIÓN PARA LA FORMACIÓN E INVESTIGACIÓN SANITARIAS DE …, priority 2019, published 2022)

What was measured:
BMDMs = test: ATP-induced mitochondrial membrane depolarization in BMDMs with or without antioxidant; assay type: cell-based, mouse; details: ATP 3 mM 30 min, PDTC 40 μM (FIG. 7c)
Procedure: (§1) FIG. 7. Mitochondrial dysfunction mediates P2X7 receptor induced NLRP3 inflammasome impairment. (a) Mitochondrial membrane depolarization in BMDMs treated with ATP (3 mM, 30 min), then washed out and incubated for the indicated times in the absence or presence of LPS (1 μg/ml) as indicated. (b) IL-1β release from wild-type BMDMs treated as in a, but after LPS priming cells were stimulated with nigericin (10 μM, 30 min). (c) Mitochondrial membrane depolarization in BMDMs treated with ATP (3 mM, 30 min) in the presence or absence pyrrolidine dithiocarbamate (PDTC, 40 μM). […] (e) Representative histogram plot of HIF-1α staining (left) or quantification of HIF-1α mean intensity fluorescence increase (ΔMFI, right) in monocytes isolated from healthy donor blood samples and treated or not with ATP (1 mM, 30 min) in the presence or absence of AZ11645373 (10 μM) or PDTC (10 μM), and then washed and cultured for 2 h; non-stained monocytes (light grey, left). […] (g) Expression of HIF1A gene analyzed by quantitative PCR from control surgery group and septic patients PBMCs; septic patients are separated into NLRP3 non-immunocompromised (grey bar) and immunocompromised (black bar). […]

HIF-1α = HIF-1α staining in human monocytes by flow cytometry; assay type: cell-based; details: ATP 1 mM 30 min; for HIF-1α expression induced by ATP treatment: AZ11645373 10 μM or PDTC 10 μM (FIG. 7e); for HIF-1α expression by the agent itself: washed, cultured 2 h (FIG. 7e)
Procedure: Human peripheral blood mononuclear cells (PBMCs) were isolated from blood within one hour after extraction using Ficoll histopaque 1077 (Sigma-Aldrich). […] Cells were treated with ATP (Sigma-Aldrich), antimycin A (Sigma-Aldrich) or FCCP (Sigma-Aldrich) in the presence or absence of PDTC (Sigma-Aldrich) or echinomycin (Sigma-Aldrich) in E-total buffer (147 mM NaCl, 10 mM HEPES, 13 mM glucose, 2 mM CaCl2), 1 mM MgCl2, and 2 mM KCl) and then washed and stimulated with E. coli LPS O55:B5 in their respective complete media. […] After LPS treatment, cells were incubated with P2X7 modulating nanobodies, the specific P2X7 receptor antagonist A438079 or AZ11645373 (Tocris), and then subsequently stimulated with ATP or nigericin (Sigma-Aldrich) in E-total buffer. Times and concentrations for the reagents used are specified in the figure legends.
HIF-1α expression was detected in CD14^+ monocytes using Alexa Fluor-647 mouse anti-human HIF-1α (BD Biosciences, Clone 54) at 1:1000 dilution.

NLRP3 inflammasome [1] = test: IL-1β release from PBMCs of healthy donors pre-treated with ATP, LPS-primed and stimulated with nigericin; assay type: cell-based; details: human PBMCs, ATP-pre 1 mM 30 min with PDTC 10 μM, LPS 1 μg/ml 4 h, nigericin 10 μM 30 min (FIG. 7d)
Procedure: as §1

NLRP3 inflammasome [2] = test: IL-1β release from BMDMs pre-treated, washed, LPS-primed and stimulated with nigericin; assay type: cell-based, mouse; details: for IL-1β release after mitochondrial depolarizing agent: wild type or P2rx7−/− BMDMs, antimycin A 5 μM or FCCP 1 μM 30 min, then LPS 1 μg/ml 4 h, nigericin 10 μM 30 min (FIG. 6d)
Procedure: FIG. 6. P2X7 receptor stimulation induces an impairment of the NLRP3 inflammasome in monocytes. (a-b) Percentage of monocytes with ASC-specks (a) and release of […] from PBMCs (b) isolated from healthy donor blood samples treated with ATP (3 mM, 30 min; ATP-pre), then washed and primed with or without LPS (1 μg/ml, 2 h) and then treated for 20 min with ATP (3 mM; ATP-post) or nigericin (10 μM) as indicated. (c) IL-1β release from wild type or P2rx7^−/− BMDMs treated as in a, but with 4 h LPS priming and 30 min of ATP or nigericin. (d) IL-1β release from wild type or P2rx7^−/− BMDMs treated for 30 min with antimycin A (5 μM) or FCCP (1 μM) and then washed and primed with LPS (1 μg/ml, 4 h) and then stimulated with nigericin (10 μM, 30 min) as indicated. (e) Expression of Nrlp3 and Illb genes analyzed by quantitative PCR from wild type or P2rx7^−/− BMDMs treated with ATP (3 mM, 30 min; ATP-pre), then washed and primed with or without LPS (100 ng/ml, 4 h). (f) Kaplan-Meier representation of wild type (top) or P2rx7^−/− (bottom) mice survival after sham operation (dotted line), or CLP operation (continuous line); some mice groups were i.p. injected with ATP (0.5 mg/g) 30 min before operation (dashed lines). Wild type CLP n=10, CLP+ATP n=8, sham n=4, sham+ATP n=4; P2rx7^−/− CLP n=4, CLP+ATP n=6, sham n=3. (g) IL-1β from peritoneal lavage (left) or bacterial load in blood (right) from wild type sham, CLP or CLP+ATP mice after 24 h. Each dot represents a single independent experiment (c,d), a sample from an individual healthy donor (a,b,e) or a single mouse (g); average±standard error is represented in panels a-e,g; *p<0.05; **p<0.01; ns, no significant difference (p>0.05); Mann-Whitney test was used for a,b,d,e; Kruskal-Wallis test was used for c; Long-rank test for f.
as §1, with “indicated.” for “indicated. (b) IL-1β release from wild-type BMDMs treated as in a, but after LPS priming cells were stimulated with nigericin (10 μM, 30 min). (c) Mitochondrial membrane depolarization in BMDMs treated with ATP (3 mM, 30 min) in the presence or absence pyrrolidine dithiocarbamate (PDTC, 40 μM).”

Cell death (LDH assay) = assay type: cell-based
Procedure: Presence of LDH in cell-free supernatants was measured using the Cytotoxicity Detection kit (Roche) following the manufacturer's instructions.

Nlrp3 and Illb = test: Quantitative PCR of Nlrp3 and Il1b gene induction by LPS; assay type: cell-based, mouse
Procedure: FIG. 6. P2X7 receptor stimulation induces an impairment of the NLRP3 inflammasome in monocytes. (a-b) Percentage of monocytes with ASC-specks (a) and release of […] from PBMCs (b) isolated from healthy donor blood samples treated with ATP (3 mM, 30 min; ATP-pre), then washed and primed with or without LPS (1 μg/ml, 2 h) and then treated for 20 min with ATP (3 mM; ATP-post) or nigericin (10 μM) as indicated. (c) IL-1β release from wild type or P2rx7^−/− BMDMs treated as in a, but with 4 h LPS priming and 30 min of ATP or nigericin. (d) IL-1β release from wild type or P2rx7^−/− BMDMs treated for 30 min with antimycin A (5 μM) or FCCP (1 μM) and then washed and primed with LPS (1 μg/ml, 4 h) and then stimulated with nigericin (10 μM, 30 min) as indicated. (e) Expression of Nrlp3 and Illb genes analyzed by quantitative PCR from wild type or P2rx7^−/− BMDMs treated with ATP (3 mM, 30 min; ATP-pre), then washed and primed with or without LPS (100 ng/ml, 4 h). […]
Detailed methods used for qRT-PCR have been described in the prior art. Relative gene expression levels were calculated using the 2^−ΔCt method normalizing to Hprt1 expression as endogenous control.

Which results are given for S=C(S)N1CCCC1 [PDTC, pyrrolidine dithiocarbamate]?
ATP-induced mitochondrial membrane depolarization (BMDMs): able to protect; HIF-1α expression induced by ATP treatment (HIF-1α): able to prevent it; production of IL-1β after ATP stimulation before LPS-priming and NLRP3 activation (NLRP3 inflammasome [1]): restored

Which results are given for N#CC(C#N)=NNc1ccc(OC(F)(F)F)cc1 [FCCP]?
IL-1β release after mitochondrial depolarizing agent (NLRP3 inflammasome [2]): reduced; HIF-1α expression by the agent itself (HIF-1α): did not increase; cell death (Cell death (LDH assay)): did not induce cell death

For O=C1CSC(=O)N1C(CCc1ccncc1)COc1ccc(-c2cccc([N+](=O)[O-])c2)cc1 (stereo not drawn) [AZ116], which “HIF-1α expression induced by ATP treatment” value (HIF-1α) is on record?
Its value is “able to prevent it”.

With CS[C@H]1SC[C@H]2C(=O)N(C)[C@@H](C(C)C)C(=O)OC[C@@H](NC(=O)c3cnc4ccccc4n3)C(=O)N[C@@H](C)C(=O)N(C)[C@@H]1C(=O)N(C)[C@@H](C(C)C)C(=O)OC[C@@H](NC(=O)c1cnc3ccccc3n1)C(=O)N[C@@H](C)C(=O)N2C [echinomycin] as the compound, how does the “production of IL-1β after ATP stimulation before LPS-priming and NLRP3 stimulation” value (NLRP3 inflammasome [2]; BMDMs, ATP-pre 3 mM 30 min with echinomycin 5 nM, LPS 1 μg/ml 4 h, nigericin 10 μM 30 min (FIG. 7f)) read?
The value was “restored”.

Which “IL-1β release after mitochondrial depolarizing agent” value (NLRP3 inflammasome [2]) does the source give for antimycin A here?
Its value is “reduced”.

What about the “HIF-1α expression by the agent itself” value (HIF-1α) of the same compound?
Its value is “did not increase”.

What about the cell death (Cell death (LDH assay)) of the same compound?
Its cell death is “did not induce cell death”.

What about the “Nlrp3 and Illb gene induction by LPS” value (Nlrp3 and Illb) of the same compound?
Its value is “reduced”.
